Each structure is given as a SMILES string. Calls of active or inactive are those of the source. Rule as the data show it: actives have a measured IC50 and inactives only a lower limit.

In the assay the target is Envelope glycoprotein gp160 (Human immunodeficiency virus 1, UniProt Q6QLK5). Nature of the assay: cell-free HIV fusion peptide-binding blockers – biochemical, uHTS, fluorescence dequenching, […] (AID 1986).
Chain of Envelope glycoprotein gp160 (Q6QLK5 whole entry, the tested form may be a part): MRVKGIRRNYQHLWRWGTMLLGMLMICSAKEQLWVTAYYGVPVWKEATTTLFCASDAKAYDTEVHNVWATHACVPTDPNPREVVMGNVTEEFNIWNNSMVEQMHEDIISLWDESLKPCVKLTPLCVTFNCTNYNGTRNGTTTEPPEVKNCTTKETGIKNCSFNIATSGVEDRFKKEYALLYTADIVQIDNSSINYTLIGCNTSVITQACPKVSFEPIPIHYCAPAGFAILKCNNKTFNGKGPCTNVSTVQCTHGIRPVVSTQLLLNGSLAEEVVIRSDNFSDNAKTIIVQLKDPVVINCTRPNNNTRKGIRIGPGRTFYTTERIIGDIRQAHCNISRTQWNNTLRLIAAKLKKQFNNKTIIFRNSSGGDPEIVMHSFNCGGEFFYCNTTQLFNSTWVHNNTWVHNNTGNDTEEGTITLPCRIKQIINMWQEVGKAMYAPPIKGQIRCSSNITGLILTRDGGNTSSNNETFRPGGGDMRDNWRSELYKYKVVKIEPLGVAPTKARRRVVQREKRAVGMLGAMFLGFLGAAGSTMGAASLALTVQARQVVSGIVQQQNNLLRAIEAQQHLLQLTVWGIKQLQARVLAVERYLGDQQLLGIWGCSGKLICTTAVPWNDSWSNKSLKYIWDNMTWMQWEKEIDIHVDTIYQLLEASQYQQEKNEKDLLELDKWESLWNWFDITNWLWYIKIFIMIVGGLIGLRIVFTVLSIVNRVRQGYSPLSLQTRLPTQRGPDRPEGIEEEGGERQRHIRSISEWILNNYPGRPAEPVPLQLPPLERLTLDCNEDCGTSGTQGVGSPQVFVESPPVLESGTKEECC
As a reminder, the IC50 is the concentration at which inhibition is half-maximal. In the case of `O=C(Nc1ccccc1Cc1ccccc1)c1ccccc1NS(=O)(=O)c1ccc(Cl)s1`, the IC50 was 17 µM (active).
In the case of `O=C(O)c1ccccc1N=Nc1c(O)[nH]c2ccc([N+](=O)[O-])cc12`, the IC50 is 23.3 µM (active).
Regarding `CCS(=O)(=O)C1=NN2C(=N)/C(=C\c3ccc(OS(=O)(=O)c4ccccc4)c(OC)c3)C(=O)N=C2S1`, the IC50 was 17.8 µM (active).
Take `COc1ccc(-c2nn(-c3ccccc3)cc2/C=C2/SC(=S)N(CCCC(=O)O)C2=O)c(C)c1`: the IC50 is 20.2 µM (active).
`CCc1ccc(NC2=NC(=O)/C(=C/c3cc(Br)c(OCC(=O)O)c(OC)c3)S2)cc1`: the IC50 was 14.6 µM (active).

The values above are taken from ChEMBL document CHEMBL1201862, “PubChem BioAssay data set” (2004).
